Reference: paper doi:10.1101/520460v1, “Chromokinesins NOD and KID Use Distinct ATPase Mechanisms and Microtubule Interactions to Perform a Similar Function” (biorxiv, 2019)

Biological target: T1, KID (Homo sapiens, UniProt Q14807)
T1 construct: gene KIF22; Glu-C V8 protease added in crystallization
T1 sequence (Q14807 40-400): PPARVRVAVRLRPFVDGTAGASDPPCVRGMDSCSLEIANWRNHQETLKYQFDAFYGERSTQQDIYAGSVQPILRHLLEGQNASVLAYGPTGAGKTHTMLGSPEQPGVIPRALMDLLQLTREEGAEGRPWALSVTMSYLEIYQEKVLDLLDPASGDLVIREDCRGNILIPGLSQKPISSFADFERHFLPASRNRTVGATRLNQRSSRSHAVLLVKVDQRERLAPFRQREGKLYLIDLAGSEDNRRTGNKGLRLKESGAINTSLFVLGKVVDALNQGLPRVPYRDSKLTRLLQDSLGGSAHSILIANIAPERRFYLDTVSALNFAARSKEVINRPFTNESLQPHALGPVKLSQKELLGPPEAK
Assay: X-ray crystal structure of the complex
Format: binding
Settings: crystals from 3.2 M NaCl, 0.1 M Tris pH 8.5, 291 K, 5 molar fold MgADP

## Nc1ncnc2c1ncn2[C@@H]1O[C@H](COP(=O)(O)OP(=O)(O)O)[C@@H](O)[C@H]1O [ADP]
  X-ray crystal structure of the complex: We solved the X-ray crystal structure of the KID catalytic domain in the ADP state
